Experimental data: patent US20180171280A1, “CELL CULTURE EXPOSURE SYSTEM (CCES)” (priority 2016, published 2018)

How the values were obtained:
[1] = tested on: BEAS-2B cells; test: CellTiter-Glo Luminescent Cell Viability Assay after ALI exposure in the CCES, BEAS-2B cells; assay type: cell-based, human; details: 2 h ALI exposure, 4 h post-exposure, Inc. Ct. = 100; for CellTiter-Glow viability, Average: average of 3 experiments
Method: (§1) The Cell Culture Exposure System (CCES) provides the ability to expose cultured mammalian cells to airborne chemicals at ALI conditions in a 24-well format.
The BEAS-2B cell line, obtained from ATTC, is an immortalized human bronchial epithelial lung cell.
Cells were grown out on T75 cm^2 flasks in complete Keratinocyte Growth Media (KGM) (KGM-Gold Bullet Kit, Lonza®). Cells were passaged and seeded onto 6.5 mm (24-well format) permeable (0.4-μm pore size) Transwell polyester membranes at passages 55 and 56. Prior to seeding, Transwells were coated with PureCol® bovine collagen (Advanced Biometrix) at a density of 10 μg/cm^2. Cells were seeded at 3.0×10^4 cells per Transwell membranes 48 h prior to exposure and at 1.5×10^4 per Transwell membrane 72 h prior to exposure to obtain a confluent monolayer. Cells were seeded on 4 inserts per exposure condition for each run.
(§2) Cells were placed into new 24-well plates with fresh growth media and put at ALI 2 h prior to exposure. […] Control cells were exposed simultaneously to clean air for 2 h in a separate chamber. Another set of control cells were kept at ALI in an incubator (37° C., 5% CO2) for 2 h. After the exposure, cells were placed in an incubator (37° C., 5% CO2) for 4 h. A total of three exposures were conducted for each cell type.
(§3) The CellTiter-Glo® Luminescent Cell Viability Assay (Promega) determines the number of viable cells based on quantification of the ATP present; an indicator of metabolically active cells. […] Two inserts per exposure condition were measured for each run.

[2] = tested on: Human primary lung cells; test: CellTiter-Glo Luminescent Cell Viability Assay after ALI exposure in the CCES, human primary lung cells; assay type: cell-based; details: 2 h ALI exposure, 4 h post-exposure, Inc. Ct. = 100; for CellTiter-Glow viability, Average: average of 3 experiments
Method: as §1
Human primary lung cells were collected by cytology brush biopsy during bronchoscopy at EPA clinical facility in Chapel Hill. Cells were cultured by standard procedures and were provided to EPA/RTP.
Cells were cultured and plated onto Transwell membranes and grown out for 28 days as described in OP.
as §2, §3

C=CC=C [1,3-Butadiene, 1,3-butadiene]
CellTiter-Glow Viability, May 10, 2017 ([1]; 0.16 ppm): 96.27
CellTiter-Glow Viability, May 11, 2017 ([1]; 0.16 ppm): 87.14
CellTiter-Glow Viability, May 12, 2017 ([1]; 0.16 ppm): 96.95
CellTiter-Glow viability, Average ([1]; 0.16 ppm): 93.45
CellTiter-Glow Viability, May 10, 2017 ([1]; 0.5 ppm): 101.8
CellTiter-Glow Viability, May 11, 2017 ([1]; 0.5 ppm): 89.3
CellTiter-Glow Viability, May 12, 2017 ([1]; 0.5 ppm): 96.1
CellTiter-Glow viability, Average ([1]; 0.5 ppm): 95.73
CellTiter-Glow Viability, May 10, 2017 ([1]; 1.7 ppm): 94.35
CellTiter-Glow Viability, May 11, 2017 ([1]; 1.7 ppm): 94.49
CellTiter-Glow Viability, May 12, 2017 ([1]; 1.7 ppm): 95.83
CellTiter-Glow viability, Average ([1]; 1.7 ppm): 94.89
CellTiter-Glow Viability, May 10, 2017 ([1]; 5 ppm): 105.3
CellTiter-Glow Viability, May 11, 2017 ([1]; 5 ppm): 81.9
CellTiter-Glow Viability, May 12, 2017 ([1]; 5 ppm): 96.8
CellTiter-Glow viability, Average ([1]; 5 ppm): 94.66
CellTiter-Glow Viability, May 10, 2017 ([1]; 16 ppm): 101.5
CellTiter-Glow Viability, May 11, 2017 ([1]; 16 ppm): 87.31
CellTiter-Glow Viability, May 12, 2017 ([1]; 16 ppm): 79.14
CellTiter-Glow viability, Average ([1]; 16 ppm): 89.33
CellTiter-Glow Viability, May 10, 2017 ([1]; 50 ppm): 105.1
CellTiter-Glow Viability, May 11, 2017 ([1]; 50 ppm): 71.1
CellTiter-Glow Viability, May 12, 2017 ([1]; 50 ppm): 9.72
CellTiter-Glow viability, Average ([1]; 50 ppm): 61.99
CellTiter-Glow viability, May 3, 2017 ([2]; 0.16 ppm): 110.9
CellTiter-Glow viability, May 4, 2017 ([2]; 0.16 ppm): 99.9
CellTiter-Glow viability, May 5, 2017 ([2]; 0.16 ppm): 90.1
CellTiter-Glow viability, Average ([2]; 0.16 ppm): 100.3
CellTiter-Glow viability, May 3, 2017 ([2]; 0.5 ppm): 118.5
CellTiter-Glow viability, May 4, 2017 ([2]; 0.5 ppm): 86.3
CellTiter-Glow viability, May 5, 2017 ([2]; 0.5 ppm): 94.2
CellTiter-Glow viability, Average ([2]; 0.5 ppm): 99.6
CellTiter-Glow viability, May 3, 2017 ([2]; 1.7 ppm): 120.3
CellTiter-Glow viability, May 4, 2017 ([2]; 1.7 ppm): 91.8
CellTiter-Glow viability, May 5, 2017 ([2]; 1.7 ppm): 101.4
CellTiter-Glow viability, Average ([2]; 1.7 ppm): 104.5
CellTiter-Glow viability, May 3, 2017 ([2]; 5 ppm): 122.0
CellTiter-Glow viability, May 4, 2017 ([2]; 5 ppm): 112.0
CellTiter-Glow viability, May 5, 2017 ([2]; 5 ppm): 98.6
CellTiter-Glow viability, Average ([2]; 5 ppm): 110.8
CellTiter-Glow viability, May 3, 2017 ([2]; 16 ppm): 128.1
CellTiter-Glow viability, May 4, 2017 ([2]; 16 ppm): 101.3
CellTiter-Glow viability, May 5, 2017 ([2]; 16 ppm): 98.9
CellTiter-Glow viability, Average ([2]; 16 ppm): 109.4
CellTiter-Glow viability, May 3, 2017 ([2]; 50 ppm): 104.7
CellTiter-Glow viability, May 4, 2017 ([2]; 50 ppm): 92.7
CellTiter-Glow viability, May 5, 2017 ([2]; 50 ppm): 95.4
CellTiter-Glow viability, Average ([2]; 50 ppm): 97.6
